Some test systems named below: A549 NSCLC; HCC-2998 colon; HCT-15 colon; HS 578T breast; IGROV1 ovarian; MOLT-4 leukemia; NCI-H460 lung; NCI-H522 lung; SF-268 CNS; SK-OV-3 ovarian.
Common to all, as to assay: growth of human tumour cells (NCI), 48 h

Molecules are shown by their SMILES.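 Results reflect a 48-hour exposure of cells in 96-well plates to compound at five concentrations. GI50 = concentration required for 50% inhibition of growth. Definition used: TGI = concentration required for complete inhibition of growth.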

Take `COc1ccc2c(c1)C(=O)c1c-2c(NCCCN(C)C)nc2ccccc12`: the GI50 is 1.86 µM in the assay with A549 NSCLC; 2.48 µM in the assay with HCC-2998 colon; 1.42 µM in the assay with HCT-15 colon; 3.7 µM in the assay on HS 578T breast; 6.99 µM in the assay on IGROV1 ovarian; 1.43 µM in the assay on MOLT-4 leukemia. For the same compound, the GI50 with NCI-H460 lung was 1.33 µM; in the assay with NCI-H522 lung, 9.79 µM; with SF-268 CNS, 1.7 µM. Also, the TGI in the assay with A549 NSCLC came to 6 µM; in the assay with HCC-2998 colon, 11.7 µM; with HCT-15 colon it was 3.2 µM; with HS 578T breast, 16 µM; in the assay with IGROV1 ovarian, 19.9 µM; in the assay on MOLT-4 leukemia, 11.1 µM. Further, the TGI came out at 2.76 µM with NCI-H460 lung, 23.4 µM in the assay on NCI-H522 lung and 4.71 µM in the assay with SF-268 CNS.

In the case of `O=C1OCC(c2ccc(O)c(O)c2)=C1c1cc(O)c(O)c(O)c1`, the GI50 with A549 NSCLC was 21.6 µM; in the assay with HCT-15 colon, 19.3 µM; in the assay on HS 578T breast, 87.9 µM; in the assay with IGROV1 ovarian it was 37.4 µM; with MOLT-4 leukemia it was 12.9 µM; in the assay on NCI-H460 lung, 35.3 µM. Further, the GI50 with NCI-H522 lung was 47.4 µM; in the assay with SF-268 CNS, 63.7 µM. The TGI with A549 NSCLC is 76 µM; in the assay with HCT-15 colon it was 44.1 µM; with HS 578T breast, above 100 µM; in the assay with IGROV1 ovarian, above 100 µM; in the assay with MOLT-4 leukemia, 27.8 µM; in the assay with NCI-H460 lung, above 100 µM. The TGI in the assay on NCI-H522 lung and in the assay on SF-268 CNS was above 100 µM each time.

With `COCCNCC(O)Cn1c2ccc(Cl)cc2c2cc(Cl)ccc21` (stereo unspecified), the GI50 with A549 NSCLC is 1.79 µM; in the assay on HCC-2998 colon, 1.81 µM; with HCT-15 colon, 2.06 µM; in the assay on HS 578T breast, 1.99 µM; with MOLT-4 leukemia, 1.97 µM; with NCI-H460 lung, 1.86 µM. The values for the GI50 with NCI-H522 lung, in the assay on SF-268 CNS and with SK-OV-3 ovarian were 2.03 µM, 1.79 µM and 2.46 µM, respectively. For the same compound, the TGI with A549 NSCLC was determined as 3.74 µM; with HCC-2998 colon it was 3.45 µM; in the assay with HCT-15 colon, 5 µM; in the assay with HS 578T breast, 5.51 µM; with MOLT-4 leukemia, 4.05 µM; in the assay with NCI-H460 lung, 3.6 µM. Besides, the TGI with NCI-H522 lung was determined as 3.89 µM; in the assay on SF-268 CNS it was 3.48 µM; in the assay on SK-OV-3 ovarian it was 5.93 µM.

Consider `Cc1ccc(S(=O)(=O)N(C)C)cc1[N+](=O)[O-]`, for which the GI50 is above 100 µM with A549 NSCLC; above 100 µM in the assay with HCC-2998 colon; above 100 µM with HCT-15 colon; above 100 µM with HS 578T breast; 59.7 µM with IGROV1 ovarian; above 100 µM with NCI-H460 lung. The GI50 with NCI-H522 lung, in the assay on SF-268 CNS and in the assay on SK-OV-3 ovarian was above 100 µM throughout. Besides, the TGI with A549 NSCLC, in the assay on HCC-2998 colon, in the assay on HCT-15 colon, in the assay with HS 578T breast, in the assay with IGROV1 ovarian and in the assay with NCI-H460 lung was above 100 µM in each case. Besides, the TGI with NCI-H522 lung, in the assay with SF-268 CNS and in the assay on SK-OV-3 ovarian was above 100 µM throughout.

With `O=C1c2ccn(CCCCN3CCOCC3)c2C(=O)c2c1c(O)c1ccccc1c2O`, the GI50 was 14.4 µM with A549 NSCLC; 3.82 µM in the assay on HCT-15 colon; 29.8 µM in the assay on HS 578T breast; 20.5 µM with IGROV1 ovarian; 12.3 µM with NCI-H460 lung; 40.3 µM in the assay with NCI-H522 lung. In addition, the results for the GI50 in the assay on SF-268 CNS and with SK-OV-3 ovarian were 9.44 µM and 16.2 µM, respectively. For the same compound, the TGI with A549 NSCLC is 38.7 µM; with HCT-15 colon, 25.5 µM; with HS 578T breast, above 100 µM; in the assay on IGROV1 ovarian, above 100 µM; in the assay with NCI-H460 lung it was 28.4 µM; with NCI-H522 lung, above 100 µM. For the same compound, the TGI with SF-268 CNS came out at 30.9 µM; with SK-OV-3 ovarian it was 55.4 µM.

As for `COc1cc2c(cc1OC)C13CCN4CC5=CCOC(CC(=O)O)C(C5CC41)C3N2` (stereo unspecified), the TGI with A549 NSCLC, in the assay on HCT-15 colon, in the assay on HS 578T breast, in the assay on IGROV1 ovarian, in the assay with MOLT-4 leukemia and in the assay on NCI-H460 lung was above 100 µM each time. Moreover, the TGI in the assay with NCI-H522 lung, in the assay with SF-268 CNS and in the assay with SK-OV-3 ovarian was above 100 µM each time.

Regarding `O=C(Cc1ccccc1)Oc1ccc2c(-c3ccccc3)c(C(=O)Nc3ccc(Cl)cc3)c(=O)oc2c1`, the TGI in the assay with A549 NSCLC, in the assay with HCC-2998 colon, with HCT-15 colon, in the assay with IGROV1 ovarian, in the assay on MOLT-4 leukemia and with NCI-H460 lung was above 100 µM throughout. Further, the TGI in the assay with NCI-H522 lung, in the assay on SF-268 CNS and in the assay with SK-OV-3 ovarian was above 100 µM throughout.

Turning to `Cc1cccc(C)c1NC(=O)CCC(=O)NNC(=O)c1cc(O)c2ccccc2c1`, the TGI in the assay with A549 NSCLC, with HCC-2998 colon, in the assay with HCT-15 colon, in the assay with IGROV1 ovarian, in the assay on MOLT-4 leukemia and with NCI-H460 lung was above 100 µM each time. Moreover, the TGI was 82.3 µM in the assay with NCI-H522 lung, above 100 µM with SF-268 CNS and above 100 µM in the assay on SK-OV-3 ovarian.

Regarding `COc1ccc(C2C3=C(NC(=O)C2C#N)c2ccc4ccccc4c2OCC3)cc1` (stereo unspecified), the GI50 is 38.9 µM in the assay with A549 NSCLC; above 100 µM in the assay with HCT-15 colon; 22.6 µM in the assay with HS 578T breast; above 100 µM in the assay on IGROV1 ovarian; above 100 µM in the assay on MOLT-4 leukemia; 66.2 µM in the assay on NCI-H460 lung. The results for the GI50 in the assay on NCI-H522 lung, in the assay with SF-268 CNS and with SK-OV-3 ovarian were 74.5 µM, 23.3 µM and 20 µM, respectively. Further, the TGI is above 100 µM in the assay with A549 NSCLC; above 100 µM in the assay with HCT-15 colon; 56.6 µM with HS 578T breast; above 100 µM with IGROV1 ovarian; above 100 µM with MOLT-4 leukemia; above 100 µM with NCI-H460 lung. Also, the results for the TGI in the assay on NCI-H522 lung, with SF-268 CNS and in the assay on SK-OV-3 ovarian were above 100 µM, 76.2 µM and 47.1 µM, respectively.

The values are drawn from PubChem BioAssay (NCI).
